From ChEMBL document CHEMBL5500384, “New synergistic benzoquinone scaffolds as inhibitors of mycobacterial cytochrome bc1 complex to treat multi-drug resistant tuberculosis” (Eur J Med Chem, 2024)

Experiments:
[1] = system: Mycobacterium tuberculosis; assay: Antitubercular activity against Mycobacterium tuberculosis H37Rv assessed as effect on nucleoid morphology at 12.5 ug/ml by fluorescence microscopy analysis; type: functional; settings: dose 12.5 µg/ml
[2] = Cytotoxicity against african green monkey Vero cells by MTT assay; type: toxicity, cell-based; settings: chlorocebus sabaeus
[3] = Acute toxicity in Albino mouse assessed as mortality at 300 mg/kg, po after 5 to 8 hrs; type: organism-based; settings: in vivo, time 5-8 hrs
[4] = Acute toxicity in Albino mouse assessed as mortality at 50 mg/kg, po after 14 days; type: organism-based; settings: in vivo, 336 h, time 14 day
[5] = system: Mycobacterium tuberculosis; assay: Antitubercular activity against Mycobacterium tuberculosis H37Rv assessed as effect on nucleoid morphology at 6.25 ug/ml by fluorescence microscopy analysis; type: functional; settings: dose 6.25 µg/ml
[6] = Acute toxicity in Albino mouse assessed as mortality at 300 mg/kg, po after 14 days; type: organism-based; settings: in vivo, 336 h, time 14 day

Compound	Activity [1]	Activity [2]	Activity [3]	Activity [4]	Activity [5]	Activity [6]
COc1ccc(C2C(Cl)C(=O)N2C2=C(Cl)C(=O)c3ccccc3C2=O)cc1 (configuration not stated)	99%	Dose-Dependent Effect	Toxic	Non-Toxic		
CN(C)c1ccc(C2C(Cl)C(=O)N2C2=C(Cl)C(=O)c3ccccc3C2=O)cc1 (configuration not stated)		Dose-Dependent Effect			99%	Non-Toxic
